# Biological target: T1, Human HIF-PHD2 (Homo sapiens, UniProt Q9GZT9)
# T1 construct: FLAG-tagged full length PHD2 expressed in and purified from baculovirus-infected Sf9 cells; FLAG; made in house; host or cells: baculovirus-infected Sf9 cells
# Experiment: Inhibition of the hydroxylation of a HIF peptide by PHD2 (time resolved fluorescence, 384-well)
# Format: biochemical
# Conditions: FLAG-tagged full length PHD2; 0.2 μM 2-oxoglutarate, 0.5 μM HIF-1α peptide; 45 minutes at room temperature; read-out: Human HIF-PHD2 IC50
# T1 sequence (Q9GZT9 whole entry): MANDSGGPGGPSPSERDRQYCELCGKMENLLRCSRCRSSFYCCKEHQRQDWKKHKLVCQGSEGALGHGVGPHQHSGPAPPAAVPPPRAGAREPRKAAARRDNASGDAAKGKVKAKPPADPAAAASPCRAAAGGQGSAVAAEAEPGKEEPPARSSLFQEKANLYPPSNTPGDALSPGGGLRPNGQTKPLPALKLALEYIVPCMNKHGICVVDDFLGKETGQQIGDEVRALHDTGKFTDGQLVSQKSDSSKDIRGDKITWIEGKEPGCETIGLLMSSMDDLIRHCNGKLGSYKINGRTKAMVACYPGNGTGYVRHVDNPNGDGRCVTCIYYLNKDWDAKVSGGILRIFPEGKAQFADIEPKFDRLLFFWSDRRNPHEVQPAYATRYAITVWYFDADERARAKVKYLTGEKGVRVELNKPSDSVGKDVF
row,Structure (SMILES),IC50
1,"O=C(O)CNC(=O)c1c(O)c2cc(F)cc3c2n(c1=O)C(c1ccc(C(F)(F)F)cc1)CN3 (centres unmarked) [Example 118, 2-(9-Fluoro-7-hydroxy-5-oxo-3-(4-(trifluoromethyl)phenyl)-1,2,3,5-tetrahydropyrido[1,2,3-de]quinoxaline-6-carboxamido)acetic acid]",5.7 nM
2,"O=C(O)CNC(=O)c1c(O)c2cc(OC(F)(F)F)cc3c2n(c1=O)CC(c1ccc(C(F)(F)F)cc1)O3 (centres unmarked) [Example 124, 2-(7-Hydroxy-5-oxo-9-(trifluoromethoxy)-2-(4-(trifluoromethyl)phenyl)-3,5-dihydro-2H-[1,4]oxazino[2,3,4-ij]quinoline-6-carboxamido)acetic acid]",9.6 nM
3,"CS(=O)(=O)c1cc2c3c(c1)c(O)c(C(=O)NCC(=O)O)c(=O)n3CC(c1ccc(C(F)(F)F)cc1)O2 (single isomer, unassigned) [Example 17, 2-(7-Hydroxy-9-(methylsulfonyl)-5-oxo-2-(4-(trifluoromethyl)phenyl)-3,5-dihydro-2H-[1,4]oxazino[2,3,4-ij]quinoline-6-carboxamido)acetic acid]",0.9 nM
4,"N#Cc1ccc2c(O)c(C(=O)NCC(=O)O)c(=O)n3c2c1OCC3 [Example 37, 2-(10-cyano-7-hydroxy-5-oxo-3,5-dihydro-2H-[1,4]oxazino[2,3,4-ij]quinoline-6-carboxamido)acetic acid]",1.5 nM
5,"CS(=O)(=O)c1cc2c3c(c1)c(O)c(C(=O)NCC(=O)O)c(=O)n3CC(c1ccc(C(F)(F)F)cc1)O2 (single isomer, unassigned) [Example 18, 2-(7-Hydroxy-9-(methylsulfonyl)-5-oxo-2-(4-(trifluoromethyl)phenyl)-3,5-dihydro-2H-[1,4]oxazino[2,3,4-ij]quinoline-6-carboxamido)acetic acid]",1.3 nM
6,"N#Cc1ccc2c(O)c(C(=O)NCC(=O)O)c(=O)n3c2c1NC(c1ccc(C(F)(F)F)cc1)C3 (centres unmarked) [Example 114, 2-(10-Cyano-7-hydroxy-5-oxo-2-(4-(trifluoromethyl)phenyl)-1,2,3,5-tetrahydropyrido[1,2,3-de]quinoxaline-6-carboxamido)acetic acid]",1 nM
7,"CN1CC(c2ccc(C(F)(F)F)cc2)n2c(=O)c(C(=O)NCC(=O)O)c(O)c3cc(F)cc1c32 (centres unmarked) [Example 122, 2-(9-Fluoro-7-hydroxy-1-methyl-5-oxo-3-(4-(trifluoromethyl)phenyl)-1,2,3,5-tetrahydropyrido[1,2,3-de]quinoxaline-6-carboxamido)acetic acid]",30 nM
8,"N#Cc1ccc2c(O)c(C(=O)NCC(=O)O)c(=O)n3c2c1OCC3Cc1ccc(C(F)(F)F)cc1 (centres unmarked) [Example 32, 2-(10-Cyano-7-hydroxy-5-oxo-3-(4-(trifluoromethyl)benzyl)-3,5-dihydro-2H-[1,4]oxazino[2,3,4-ij]quinoline-6-carboxamido)acetic acid]",1.3 nM

# The remaining lines, values ahead:
row,IC50,Structure (SMILES)
1,42 nM,"CS(=O)(=O)c1ccc2c3c1c(O)c(C(=O)NCC(=O)O)c(=O)n3C(Cc1ccc(C(F)(F)F)cc1)CO2 (centres unmarked) [Example 28, 2-(7-Hydroxy-8-(methylsulfonyl)-5-oxo-3-(4-(trifluoromethyl)benzyl)-3,5-dihydro-2H-[1,4]oxazino[2,3,4-ij]quinoline-6-carboxamido)acetic acid]"
2,1.6 nM,"CS(=O)(=O)c1ccc2c(O)c(C(=O)NCC(=O)O)c(=O)n3c2c1OC(c1ccc(C(F)(F)F)cc1)C3 (single isomer, unassigned) [Example 23, 2-(7-Hydroxy-10-(methylsulfonyl)-5-oxo-2-(4-(trifluoromethyl)phenyl)-3,5-dihydro-2H-[1,4]oxazino[2,3,4-ij]quinoline-6-carboxamido)acetic acid]"
3,5.7 nM,"O=C(O)CNC(=O)c1c(O)c2ccc(Br)c3c2n(c1=O)C(Cc1ccc(C(F)(F)F)cc1)CO3 (centres unmarked) [Example 27, 2-(10-Bromo-7-hydroxy-5-oxo-3-(4-(trifluoromethyl)benzyl)-3,5-dihydro-2H-[1,4]oxazino[2,3,4-ij]quinoline-6-carboxamido)acetic acid]"
4,29 nM,"CN1c2cccc3c(O)c(C(=O)NCC(=O)O)c(=O)n(c23)CC1c1cncs1 (centres unmarked) [Example 112, 2-(7-Hydroxy-1-methyl-5-oxo-2-(thiazol-5-yl)-1,2,3,5-tetrahydropyrido[1,2,3-de]quinoxaline-6-carboxamido)acetic acid]"
5,3 nM,"N#Cc1cc2c3c(c1)c(O)c(C(=O)NCC(=O)O)c(=O)n3C(Cc1ccc(C(F)(F)F)cc1)CO2 (centres unmarked) [Example 4, 2-(9-Cyano-7-hydroxy-5-oxo-3-(4-(trifluoromethyl)benzyl)-3,5-dihydro-2H-[1,4]oxazino[2,3,4-ij]quinoline-6-carboxamido)acetic acid]"
6,25 nM,"O=C(O)CNC(=O)c1c(O)c2cccc3c2n(c1=O)C(c1ccc(Cl)cc1)CO3 (centres unmarked) [Example 157, 2-(7-Hydroxy-5-oxo-3-(4-chlorophenyl)-3,5-dihydro-2H-[1,4]oxazino[2,3,4-ij]quinoline-6-carboxamido)acetic acid]"
7,0.9 nM,"N#Cc1cc2c3c(c1)c(O)c(C(=O)NCC(=O)O)c(=O)n3CC(c1ccc(C(F)(F)F)nc1)C2 (centres unmarked) [Example 84, 2-(9-cyano-1-hydroxy-3-oxo-6-(6-(trifluoromethyl)pyridin-3-yl)-3,5,6,7-tetrahydropyrido[3,2,1-ij]quinoline-2-carboxamido)acetic acid]"
8,4.9 nM,"O=C(O)CNC(=O)c1c(O)c2c(F)ccc3c2n(c1=O)CC(c1ccc(C(F)(F)F)cc1)O3 (single isomer, unassigned) [Example 68, 2-(8-Fluoro-7-hydroxy-5-oxo-2-(4-(trifluoromethyl)phenyl)-3,5-dihydro-2H-[1,4]oxazino[2,3,4-ij]quinoline-6-carboxamido)acetic acid]"

# Same assay, conditions: FLAG-tagged full length PHD2; 0.2 μM 2-oxoglutarate, 0.5 μM HIF-1α peptide; 45 minutes at room temperature; read-out: MS m/z (M + 1)+ and human HIF-PHD2 IC50
row,Structure (SMILES),IC50
1,"O=C(O)CNC(=O)c1c(O)c2ccc(F)c3c2n(c1=O)C(c1ccc(C(F)(F)F)cc1)CO3 (centres unmarked) [Example 164, 2-(10-fluoro-7-hydroxy-5-oxo-3-(4-(trifluoroMethyl)phenyl)-3,5-dihydro-2H-[1,4]oxazino[2,3,4-ij]quinoline-6-carboxamido)acetic acid]",16 nM
2,"N#Cc1ccc2c(O)c(C(=O)NCC(=O)O)c(=O)n3c2c1OCC3c1cncs1 (centres unmarked) [Example 182, ammonium 2-(10-cyano-7-hydroxy-5-oxo-3-(thiazol-5-yl)-3,5-dihydro-2H-[1,4]oxazino[2,3,4-ij]quinoline-6-carboxamido)acetate]",1.4 nM
3,"O=C(O)CNC(=O)c1c(O)c2ccc(Br)c3c2n(c1=O)C(c1ccc(C(F)(F)F)cc1)CO3 (centres unmarked) [Example 161, 2-(10-bromo-7-hydroxy-5-oxo-3-(4-(trifluoromethyl)phenyl)-3,5-dihydro-2H-[1,4]oxazino[2,3,4-ij]quinoline-6-carboxamido)acetic acid]",16 nM
4,"N#Cc1cc2c3c(c1)c(O)c(C(=O)NCC(=O)O)c(=O)n3C(c1ccc(C(F)(F)F)cc1)CO2 (centres unmarked) [Example 179, ammonium 2-(9-cyano-7-hydroxy-5-oxo-3-(4-(trifluoromethyl)phenyl)-3,5-dihydro-2H-[1,4]oxazino[2,3,4-ij]quinoline-6-carboxamido)acetate]",4.6 nM

# Next, values leading:
row,IC50,Structure (SMILES)
1,2.9 nM,"N#Cc1ccc2c3c1c(O)c(C(=O)NCC(=O)O)c(=O)n3C(c1ccc(C(F)(F)F)cc1)CO2 (centres unmarked) [Example 180, ammonium 2-(8-cyano-7-hydroxy-5-oxo-3-(4-(trifluoromethyl)phenyl)-3,5-dihydro-2H-[1,4]oxazino[2,3,4-ij]quinoline-6-carboxamido)acetate]"
2,16 nM,"O=C(O)CNC(=O)c1c(O)c2c(Br)ccc3c2n(c1=O)C(c1ccc(C(F)(F)F)cc1)CO3 (centres unmarked) [Example 169, 2-(8-bromo-7-hydroxy-5-oxo-3-(4-(trifluoromethyl)phenyl)-3,5-dihydro-2H-[1,4]oxazino[2,3,4-ij]quinoline-6-carboxamido)acetic acid]"
3,19 nM,"O=C(O)CNC(=O)c1c(O)c2ccc(-c3ccccn3)c3c2n(c1=O)C(c1ccc(C(F)(F)F)cc1)CO3 (centres unmarked) [Example 136, N-({7-hydroxy-5-oxo-10-pyridin-2-yl-3-[4-(trifluoromethyl)phenyl]-2,3-dihydro-5H-[1,4]oxazino[2,3,4-ij]quinolin-6-yl}carbonyl)glycine]"

# From patent publication US9969752B2, “Inhibitors of HIF prolyl hydroxylase” (MERCK SHARP & DOHME CORP., priority 2014, dated 2018)
